This note sets out measurements from ChEMBL document CHEMBL3853350 (ACS Med Chem Lett, 2016).

In series [1] the target is Phosphatidylinositol 4,5-bisphosphate 3-kinase catalytic subunit gamma isoform (Homo sapiens, UniProt P48736). Briefly: biochemical.
Description: Inhibition of human recombinant full length N-terminal His-tagged PI3Kgamma expressed in Sf9 insect cells using diC8PIP2 as substrate incubated for 15 mins followed by substrate addition measured after 2 hr by ADP-Glo luminescence assay
The target in series [2] is PI3-kinase p110-delta/p85-alpha (Homo sapiens, UniProt O00329). Put plainly: Inhibition of human recombinant full length N-terminal GST-tagged PI3K p110delta/p85alpha coexpressed in baculovirus infected Sf9 insect cells using diC8PIP2 as substrate incubated for 15 mins followed by substrate addition measured after 2 hr by ADP-Glo luminescence assay. For orientation: ADP-Glo turns the ADP formed in a reaction into a luminescent signal.
Chain of PI3-kinase p110-delta/p85-alpha (P27986 whole entry): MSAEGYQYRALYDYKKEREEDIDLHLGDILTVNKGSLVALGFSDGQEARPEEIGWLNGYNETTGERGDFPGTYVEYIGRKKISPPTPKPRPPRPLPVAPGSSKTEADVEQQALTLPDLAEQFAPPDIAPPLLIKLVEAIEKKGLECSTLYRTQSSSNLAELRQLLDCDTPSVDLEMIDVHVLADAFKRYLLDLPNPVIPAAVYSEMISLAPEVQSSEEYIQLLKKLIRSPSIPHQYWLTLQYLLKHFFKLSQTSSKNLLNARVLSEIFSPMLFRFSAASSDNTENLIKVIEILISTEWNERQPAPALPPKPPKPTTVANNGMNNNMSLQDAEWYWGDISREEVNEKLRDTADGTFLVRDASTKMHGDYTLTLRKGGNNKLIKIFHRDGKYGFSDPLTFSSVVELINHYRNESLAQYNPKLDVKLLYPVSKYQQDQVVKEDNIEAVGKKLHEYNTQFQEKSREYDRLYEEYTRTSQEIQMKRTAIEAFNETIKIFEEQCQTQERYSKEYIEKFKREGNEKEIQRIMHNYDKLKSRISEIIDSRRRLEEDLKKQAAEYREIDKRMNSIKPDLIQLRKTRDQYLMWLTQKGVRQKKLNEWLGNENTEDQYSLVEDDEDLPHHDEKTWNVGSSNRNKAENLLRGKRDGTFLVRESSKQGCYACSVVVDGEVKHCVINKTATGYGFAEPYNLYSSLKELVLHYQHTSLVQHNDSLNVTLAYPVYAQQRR
Chain of PI3-kinase p110-delta/p85-alpha (O00329 whole entry): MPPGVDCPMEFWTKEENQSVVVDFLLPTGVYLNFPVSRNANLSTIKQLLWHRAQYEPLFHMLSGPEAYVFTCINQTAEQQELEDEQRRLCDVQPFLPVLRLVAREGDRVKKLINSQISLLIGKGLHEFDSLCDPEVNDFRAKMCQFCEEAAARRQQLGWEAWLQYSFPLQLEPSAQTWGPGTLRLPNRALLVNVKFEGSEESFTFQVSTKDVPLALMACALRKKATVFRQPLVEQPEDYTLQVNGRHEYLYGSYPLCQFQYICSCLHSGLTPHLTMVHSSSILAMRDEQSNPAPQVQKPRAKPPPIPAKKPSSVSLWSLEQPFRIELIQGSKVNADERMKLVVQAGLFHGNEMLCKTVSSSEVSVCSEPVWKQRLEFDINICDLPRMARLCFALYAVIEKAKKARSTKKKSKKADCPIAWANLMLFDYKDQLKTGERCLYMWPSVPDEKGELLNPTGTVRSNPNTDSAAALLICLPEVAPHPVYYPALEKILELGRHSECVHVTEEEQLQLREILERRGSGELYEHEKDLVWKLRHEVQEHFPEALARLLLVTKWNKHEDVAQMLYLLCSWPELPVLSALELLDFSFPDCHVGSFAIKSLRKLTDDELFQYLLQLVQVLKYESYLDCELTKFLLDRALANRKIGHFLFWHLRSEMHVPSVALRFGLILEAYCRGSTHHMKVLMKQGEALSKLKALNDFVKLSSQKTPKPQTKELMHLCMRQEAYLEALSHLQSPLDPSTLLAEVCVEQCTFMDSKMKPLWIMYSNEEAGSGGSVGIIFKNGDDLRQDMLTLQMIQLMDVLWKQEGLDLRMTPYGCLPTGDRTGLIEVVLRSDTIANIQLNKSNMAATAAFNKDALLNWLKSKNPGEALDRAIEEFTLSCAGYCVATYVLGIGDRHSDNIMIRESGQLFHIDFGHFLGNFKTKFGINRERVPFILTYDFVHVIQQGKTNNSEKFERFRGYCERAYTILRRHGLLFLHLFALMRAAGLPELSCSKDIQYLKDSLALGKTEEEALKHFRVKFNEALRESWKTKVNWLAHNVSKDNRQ

A short description of series [3]: Half life in mouse hepatocytes at 1 uM by LC/MS analysis. Type of series: ADME, cell-based, Hepatocyte.

Chain of Phosphatidylinositol 4,5-bisphosphate 3-kinase catalytic subunit gamma isoform (P48736 whole entry, canonical isoform): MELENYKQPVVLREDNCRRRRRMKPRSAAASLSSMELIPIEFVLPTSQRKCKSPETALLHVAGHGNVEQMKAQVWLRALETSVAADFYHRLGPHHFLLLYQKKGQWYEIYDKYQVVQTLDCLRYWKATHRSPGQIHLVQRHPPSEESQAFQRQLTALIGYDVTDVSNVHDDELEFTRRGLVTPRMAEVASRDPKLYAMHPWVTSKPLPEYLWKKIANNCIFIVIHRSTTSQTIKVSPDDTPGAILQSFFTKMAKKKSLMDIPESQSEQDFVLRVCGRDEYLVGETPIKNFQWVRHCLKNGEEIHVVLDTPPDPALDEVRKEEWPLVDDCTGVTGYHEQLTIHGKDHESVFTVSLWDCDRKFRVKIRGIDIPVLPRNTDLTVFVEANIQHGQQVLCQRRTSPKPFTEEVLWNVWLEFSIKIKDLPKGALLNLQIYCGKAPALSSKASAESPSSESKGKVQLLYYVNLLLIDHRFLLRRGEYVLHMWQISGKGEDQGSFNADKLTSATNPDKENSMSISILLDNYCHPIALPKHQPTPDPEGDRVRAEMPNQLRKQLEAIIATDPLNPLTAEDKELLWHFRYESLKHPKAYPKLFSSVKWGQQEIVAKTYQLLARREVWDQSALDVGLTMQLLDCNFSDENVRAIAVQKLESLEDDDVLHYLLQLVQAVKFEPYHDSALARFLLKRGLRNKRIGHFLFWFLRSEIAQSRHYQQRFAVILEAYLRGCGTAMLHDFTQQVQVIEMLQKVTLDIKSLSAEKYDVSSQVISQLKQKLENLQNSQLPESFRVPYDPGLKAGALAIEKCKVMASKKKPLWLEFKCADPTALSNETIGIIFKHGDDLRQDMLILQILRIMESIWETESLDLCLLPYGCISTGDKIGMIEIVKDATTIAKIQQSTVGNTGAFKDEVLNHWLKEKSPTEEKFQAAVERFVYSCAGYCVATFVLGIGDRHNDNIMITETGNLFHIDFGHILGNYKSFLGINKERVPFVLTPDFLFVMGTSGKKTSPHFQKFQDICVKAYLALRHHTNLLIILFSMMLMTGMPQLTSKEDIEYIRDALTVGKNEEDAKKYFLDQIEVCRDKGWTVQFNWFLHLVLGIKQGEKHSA

Usually IC50 stands for the point on the concentration scale where inhibition reaches its midpoint. Regarding `Nc1nn2cccnc2c1C(=O)NCc1cc2cccc(Cl)c2c(=O)n1-c1ccccc1`, the concentration for half-maximal inhibition (IC50) in series [1] was greater than 7 µM; in series [2] it was greater than 10 µM.

Broadly, the half-life is how long it takes for the measured level to halve. A higher half-life goes with slow decline. As to `C[C@H](NC(=O)c1c(N)nn2cccnc12)c1cc2cccc(C#Cc3ccccn3)c2c(=O)n1-c1ccccc1`, the IC50 in series [1] is 0.17 µM; in series [2] it was greater than 9.6 µM. Also, the half-life at 1 µM in series [3] is 1.2 h.

On to `C[C@H](NC(=O)c1c(N)nn2cccnc12)c1cc2cccc(C#Cc3nccs3)c2c(=O)n1-c1ccccc1`, for which the IC50 was 0.36 µM in series [1] and greater than 10 µM in series [2]. Further, the half-life at 1 µM in series [3] is 0.45 h.

On to `C[C@H](NC(=O)c1cnn2cccnc12)c1cc2cccc(Cl)c2c(=O)n1-c1ccccc1`, for which the IC50 in series [1] turned out to be 0.4 µM; in series [2] it was 0.8 µM.

Take `C[C@H](NC(=O)c1c(N)ncc2cccnc12)c1cc2cccc(Cl)c2c(=O)n1-c1ccccc1`: the IC50 was 0.06 µM in series [1] and 0.32 µM in series [2].

For the molecule `C[C@H](NC(=O)c1c(N)nn2cccnc12)c1cc2cccc(C#Cc3ccn(C)n3)c2c(=O)n1-c1ccccc1`, the 50% inhibitory concentration (IC50) in series [1] was 0.1 µM; in series [2] it was greater than 9 µM. This molecule also registered a half-life at 1 µM in series [3] of 4.18 h.

Turning to `COc1cccc2cc([C@H](C)NC(=O)c3c(N)nn4cccnc34)n(-c3ccccc3)c(=O)c12`, the results for the IC50 in series [1] and in series [2] were 1 µM and greater than 9 µM, respectively.

For `C[C@H](NC(=O)c1c(N)nn2ccccc12)c1cc2cccc(Cl)c2c(=O)n1-c1ccccc1`, the half-maximal inhibitory concentration (IC50) in series [2] came out at 2.6 µM.

On to `C[C@H](NC(=O)c1c(N)nn2cccnc12)c1cc2cccc(C#Cc3cncs3)c2c(=O)n1-c1ccccc1`, for which the concentration for half-maximal inhibition (IC50) in series [1] is 0.11 µM; in series [2] it was greater than 8 µM. In series [3], this molecule registered a half-life at 1 µM of 0.717 h.

Take `C[C@H](NC(=O)c1c(N)nn2cccnc12)c1cc2cccc(C#Cc3cscn3)c2c(=O)n1-c1ccccc1`: the IC50 was 0.075 µM in series [1] and 4.8 µM in series [2]. This molecule came in with a half-life at 1 µM in series [3] of 4.5 h.

Take `C[C@H](NC(=O)c1c(N)nn2cccnc12)c1cc2cccc(C#Cc3cccnc3)c2c(=O)n1-c1ccccc1`: the values for the IC50 in series [1] and in series [2] were 0.11 µM and greater than 6 µM, respectively. Moreover, the half-life at 1 µM in series [3] stood at 1.7 h.

For `CC#Cc1cccc2cc([C@H](C)NC(=O)c3c(N)nn4cccnc34)n(-c3ccccc3)c(=O)c12`, the half-inhibitory concentration (IC50) was 0.025 µM in series [1] and greater than 1 µM in series [2].

In the case of `C[C@H](NC(=O)c1c(N)nn2cccnc12)c1cc2cccc(C#N)c2c(=O)n1-c1ccccc1`, the IC50 in series [1] came out at 0.24 µM; in series [2], 3.1 µM.

As to `C/C=C/c1cccc2cc([C@H](C)NC(=O)c3c(N)nn4cccnc34)n(-c3ccccc3)c(=O)c12`, the figures for the IC50 in series [1] and in series [2] were 0.33 µM and greater than 10 µM, respectively.

As for `Cc1cccc2cc([C@H](C)NC(=O)c3c(N)nn4cccnc34)n(-c3ccccc3)c(=O)c12`, the figures for the half-inhibitory concentration (IC50) in series [1] and in series [2] were 0.11 µM and 2.6 µM, respectively.

`CNc1cccc2cc([C@H](C)NC(=O)c3c(N)nn4cccnc34)n(-c3ccccc3)c(=O)c12`: the half-inhibitory concentration (IC50) is 1.1 µM in series [1] and greater than 10 µM in series [2].

`C[C@H](NC(=O)c1c(N)nn2cccnc12)c1cc2cccc(C#Cc3ccncc3)c2c(=O)n1-c1ccccc1`: the results for the IC50 in series [1] and in series [2] were 0.35 µM and greater than 9 µM, respectively. The half-life at 1 µM in series [3] was 0.85 h.

Turning to `CC[C@H](NC(=O)c1c(N)nn2cccnc12)c1cc2cccc(Cl)c2c(=O)n1-c1ccccc1`, the IC50 was 0.15 µM in series [1] and 0.6 µM in series [2].

Consider `C[C@H](NC(=O)c1c(N)nn2cccnc12)c1cc2cccc(Cl)c2c(=O)n1-c1ccccc1`, for which the half-maximal inhibitory concentration (IC50) in series [2] stood at 0.4 µM.

With `C[C@H](NC(=O)c1c(N)nn2cccnc12)c1cc2cccc(C#Cc3ccccc3)c2c(=O)n1-c1ccccc1`, the results for the IC50 in series [1] and in series [2] were 0.28 µM and 0.14 µM, respectively.

Consider `C#Cc1cccc2cc([C@H](C)NC(=O)c3c(N)nn4cccnc34)n(-c3ccccc3)c(=O)c12`, for which the IC50 was 0.014 µM in series [1] and 0.7 µM in series [2].

For `C[C@H](NC(=O)c1c(N)nn2cccnc12)c1cc2cccc(F)c2c(=O)n1-c1ccccc1`, the 50% inhibitory concentration (IC50) in series [1] came out at 0.05 µM; in series [2] it was 0.53 µM.

Turning to `C[C@H](NC(=O)c1cncc2cccnc12)c1cc2cccc(Cl)c2c(=O)n1-c1ccccc1`, the concentration for half-maximal inhibition (IC50) was 1 µM in series [1] and 0.9 µM in series [2].

On to `C[C@H](NC(=O)c1c(N)nn2cccnc12)c1cc2cccc(N(C)C)c2c(=O)n1-c1ccccc1`, for which the IC50 in series [1] was 1.1 µM; in series [2], greater than 10 µM.

For the molecule `C[C@H](NC(=O)c1c(N)ncc2ccccc12)c1cc2cccc(Cl)c2c(=O)n1-c1ccccc1`, the half-maximal inhibitory concentration (IC50) in series [1] and in series [2] was greater than 10 µM each time.
